Laboratory results: patent publication US10858335B2 (Rigel Pharmaceuticals, Inc., priority 2014, dated 2020)

Test system: GDF8 signaling (p-SMAD-3 (Ser423/425))
Assay: AlphaScreen SureFire SMAD3 (p-Ser423/425) assay, GDF8-stimulated cells (GDF pSMAD)
Format: cell-based
Conditions: Mus musculus, MPC-11, GDF8-stimulated pSMAD3, MPC11; tested as the salt form given; read-out: GDF pSMAD (MPC11) (μM), inhibition of GDF8 signaling

| IC50 [µM] | SMILES |
| --- | --- |
| 1.09 | Cn1ccc(Nc2ncnc3ccc(-c4cccnc4-c4cc(Cl)ccc4F)cc23)n1 [compound 1032, 6-(2-(5-chloro-2-fluorophenyl)pyridin-3-yl)-N-(1-methyl-1H-pyrazol-3-yl)quinazolin-4-amine] |

Same assay, conditions: Mus musculus, MPC-11, MPC11; GDF8-stimulated; p-SMAD3 AlphaScreen; read-out: GDF pSMAD (MPC11) (inhibition of GDF8 signaling)

| IC50 [µM] | SMILES |
| --- | --- |
| 0.608 | CN(C)CCCOc1ncnc2ccc(-c3cccnc3-c3ccc(F)c(Cl)c3)cc12 [compound 435, 3-((6-(2-(3-Chloro-4-fluorophenyl)pyridin-3-yl)quinazolin-4-yl)oxy)-N,N-dimethylpropan-1-amine] |
| 0.804 | Fc1ccc(-c2ncccc2-c2ccc3[nH]ncc3c2)cc1F [Compound 62, 5-(2-(3,4-Difluorophenyl)pyridin-3-yl)-1H-indazole] |
| 0.429 | COc1cc(-c2ncccc2-c2ccc3ncnc(N)c3c2)ccc1F [compound 474, 6-(2-(4-Fluoro-3-methoxyphenyl)pyridin-3-yl)quinazolin-4-amine] |
| 0.26 | Cc1cccc(-c2ncccc2-c2ccc3ncn(C)c(=O)c3c2)c1 [compound 341, 3-Methyl-6-(2-(m-tolyl)pyridin-3-yl)quinazolin-4(3H)-one] |
| 0.537 | Cc1cccc(-c2ncccc2-c2ccc3ncc(C(=O)NCCCN4CCCC4=O)n3c2)c1 [compound 724, N-(3-(2-Oxopyrrolidin-1-yl)propyl)-6-(2-(m-tolyl)pyridin-3-yl)imidazo[1,2-a]pyridine-3-carboxamide] |
| 18.4 | Cc1cc(-c2ncc(NC3CC3)cc2-c2ccc3[nH]ncc3c2)ccc1F [compound 212, N-Cyclopropyl-6-(4-fluoro-3-methylphenyl)-5-(1H-indazol-5-yl)pyridin-3-amine] |
| 5.06 | O=C(NCCCN1CCCC1=O)c1cnc2ccc(-c3cccnc3-c3cc(F)c(F)cc3F)cn12 [compound 728, N-(3-(2-Oxopyrrolidin-1-yl)propyl)-6-(2-(2,4,5-Trifluorophenyl)pyridin-3-yl)imidazo[1,2-a]pyridine-3-carboxamide] |
| 0.429 | Cc1cc(-c2ncccc2-c2ccc3ncc(C#N)n3n2)ccc1F [compound 947, 6-(2-(4-Fluoro-3-methylphenyl)pyridin-3-yl)imidazo[1,2-b]pyridazine-3-carbonitrile] |
| 0.375 | Cc1cc(-c2ncccc2-c2ccn3ncc(C(=O)NCCN(C)C)c3c2)ccc1F [compound 673, N-(2-(Dimethylamino)ethyl)-5-(2-(4-fluoro-3-methylphenyl)pyridin-3-yl)pyrazolo[1,5-a]pyridine-3-carboxamide] |
| 22.8 | Fc1ccc(-c2ncccc2-c2cnc3cn[nH]c3c2)cc1F [Compound 137, 6-(2-(3,4-Difluorophenyl)pyridin-3-yl)-1H-pyrazolo[4,3-b]pyridine] |
| 2.92 | Cc1c(-c2cccnc2-c2cccc(Cl)c2)ccc2ncnn12 [compound 811, 6-(2-(3-Chlorophenyl)pyridin-3-yl)-5-methyl-[1,2,4]triazolo[1,5-a]pyridine] |
| 0.347 | O=c1nc[nH]c2cc(-c3cccnc3-c3cccc(C4CC4)c3)ccc12 [compound 350, 7-(2-(3-cyclopropylphenyl)pyridin-3-yl)quinazolin-4(1H)-one] |
| 0.198 | Fc1ccc(-c2ncccc2-c2ccc3[nH]ncc3c2)cc1C1CC1 [compound 211, 5-(2-(3-Cyclopropyl-4-fluorophenyl)pyridin-3-yl)-1H-indazole] |
| 5.58 | COc1cnc(-c2ccc(F)c(Cl)c2)c(-c2ccn3ncnc3c2)c1 [compound 856, 7-(2-(3-Chloro-4-fluorophenyl)-5-methoxypyridin-3-yl)-[1,2,4]triazolo[1,5-a]pyridine] |
| 1.83 | Cc1cc(-c2ncccc2-c2cc3cn[nH]c3cc2C)ccc1F [Compound 173, 5-(2-(4-Fluoro-3-methylphenyl)pyridin-3-yl)-6-methyl-1H-indazole] |
| 3.69 | COc1cc(NC(=O)c2cnc3ccc(-c4cccnc4-c4cccc(C(F)(F)F)c4)cn23)cc(OC)c1OC [compound 576, 6-(2-(3-(Trifluoromethyl)phenyl)pyridin-3-yl)-N-(3,4,5-trimethoxyphenyl)imidazo[1,2-a]pyridine-3-carboxamide] |
